Key:
[1] = tested on: antibody-Protein A/G complex; experiment: Effect of heparin on the antibody-Protein A/G complex (magnetic beads, SDS gel); assay type: binding; conditions: 0.125, 0.25, 0.5 and 1 mg/ml Heparin, 30 minutes, room temperature, Protein A/G magnetic beads with IgG, sodium salt
Description: The numbers on the top indicate added heparin quantity in the reaction mgs/ml.
Antibody heavy and light chains that are bound to Protein A/G can be released by boiling and resolved on an SDS gel (B). Any antibody that was free in solution having been eluted or displaced by heparin from Protein A/G could be visualized without boiling (E).
To determine the effect of heparin on the formation of the antibody-Protein A/G complex, 5 mgs of immobilized and covalently cross-linked protein A/G magnetic beads were bound to 50 μgs of IgG molecules in a 50 μl reaction volume containing 1×PBST at room temperature for 30 minutes. The complex was washed 3 times using 1 ml of 1×PBST and incubated with 0.125, 0.25, 0.5 and 1 mg/ml Heparin for 30 minutes at room temperature in 25 μl total volume. The bead-bound (B) and unbound or bead elution (E) fractions were collected, SDS sample buffer (New England Biolabs, Ipswich, Mass.) was added and the samples were incubated at 95° C. for 5 minutes. Both B and E samples were resolved on tricine 10% acrylamide gel and stained for protein.

[2] = tested on: DNA-Nt.CviPII-Protein A complex; experiment: Gel-shift assay: dissociation of the DNA-Nt.CviPII-Protein A complex by heparin; assay type: binding; conditions: 3.2 μM Nt.CviPII-Protein A, NEBuffer 2 without magnesium, 50 μl
Method: Increasing amounts of heparin disrupts complex formation. Nicking activity is prevented by the absence of magnesium ions in the buffer.
From left to right: C is a control that is DNA in the absence of a NEFP or heparin. 0 is a control in which nicking endonuclease was added to DNA in the absence of heparin. The DNA-NEFP complex (DNA-Nt.CviPII-Protein A complex) is seen as a band at the top of the lane.
To establish that the inhibitory effect of heparin, sodium salt in untethered Nt.CviPII-Protein A fusion activity was due to selective dissociation between DNA substrate and fusion enzyme, a gel-shift assay was performed. Double stranded DNA substrate containing constant amounts of Nt.CviPII binding domains (CCA, 5′[…]-F, F=fluorescein (SEQ ID NO:9)) and 3.2 μM Nt.CviPII-Protein A fusion were combined in the presence of 1×NEBuffer 2 in the absence of magnesium for 30 minutes at room temperature to enable an enzyme-substrate complex to be formed. Increasing amounts of heparin, sodium salt (0, 2.3, 4.6, 1, 20, 42, 83, 166, 330 μg/ml) was added to the total 50 μl reaction volume. It was observed that a heparin concentration of greater than 0.2 mgs/ml (at least […]) enabled complete dissociation of the DNA-Nt.CviPII-Protein A complex as observed by the appearance of bands corresponding to DNA alone in a native 6% retardation gel (Thermo Fisher Scientific, Waltham, Mass.). […]

Nt.CviPII-Protein A = experiment: Inhibition of the nicking activity of Nt.CviPII-Protein A fusion by heparin sodium salt; assay type: biochemical; conditions: 2.5 units Nt.CviPII-Protein A, 0.5 μg pUC19 DNA, NEBuffer 2, 40 minutes 37° C.
Method: In lanes 1-9, 2.5 units of NEFP was added to 0.5 μgs of plasmid DNA in the presence of increasing amounts of heparin (0.15-10 mg/ml). Digestion was not observed when 0.3 mg heparin/ml or greater amounts are present.
To determine the effect of heparin sodium salt on the inhibition of nicking activities of Nt.CviPII-Protein A fusion, reaction tubes containing 10, 5, 2.5, 1.25, 0.62, 0.31, 0.15, and 0 mg/ml heparin, sodium salt were added to a 50 μl reaction, consisting of 5 μl 10×NEBuffer 2, 2.5 units Nt.CviPII-Protein A (as described in Example 1(B)), and 0.5 μg pUC19 DNA and incubated for 40 minutes 37° C. 10 μl of DNA loading dye mix (5×) was added to the samples and were resolved on a 10% polyacrylamide gel. The gel was stained with SYBR® Green (Molecular Probes, Eugene, Oreg.) and scanned on a Typhoon® imager (GE Healthcare Bio-Sciences, Marlborough, Mass.).

[3] = tested on: pBR322 circular double stranded DNA; experiment: Nicking activity of Protein G/A-gHNH fusion on plasmid DNA (agarose gel); assay type: biochemical; conditions: 50 μl, 37° C., 1 hour; for amount of fusion enzyme giving complete nicking/digestion of DNA substrate: 1 μg pBR322, NEBuffer 2 with manganese ions (1 mM) instead of magnesium
Method: The nicking activity of Protein G-HNH was compared to a second non-fused nicking endonuclease (Nt.CviPII) (2 units) in the same gel to determine a generalized and consistent cleavage profile and was also compared to a control in the lane labeled 0 containing no nicking endonuclease either fused or unfused.
Protein G/A-gHNH fusion nicking activity was tested on pBR322 circular double stranded DNA using NEBuffer 2 in which magnesium ions were replaced by the same amount of manganese ions (1 mM). 1 μg of plasmid was used with 0.03 to 2 units of Protein G/A-gHNH fusion enzyme in a two-fold serial dilutions (2, 1, 0.5, 0.25, 0.125, 0.06, 0.03 units) in a total volume of 50 μl incubated at 37° C. for 1 hour. 10 μl of DNA loading dye mix (5×) was added to the nicked DNA. The nicked DNA samples were resolved on a 1% agarose gel and visualized under UV light. DNA fragment size was estimated along with 2 log DNA ladder (New England Biolabs, Ipswich, Mass.) and positive control Nt.CviPII (2 units) of the non-fused nicking endonuclease, (New England Biolabs, Ipswich, Mass.) digested pBR322 DNA (FIG. 1B). […] A representative figure supporting this conclusion is provided in FIG. 1B for Protein G-gHNH fusions.

Molecule | effect of heparin on antibody bound to Protein A/G ([1]; listed as Heparin) | effect of heparin on antibody bound to Protein A/G [1] | heparin concentration enabling complete dissociation of the DNA-Nt.CviPII-Protein A complex (parenthesis) [2] | heparin concentration enabling complete dissociation of the DNA-Nt.CviPII-Protein A complex ([2]; native 6% retardation gel) | heparin concentration giving total inhibition of nicking (no digestion observed) (Nt.CviPII-Protein A) | heparin concentration giving total inhibition of nicking (no digestion observed) (Nt.CviPII-Protein A; listed as Heparin sodium salt) | amount of fusion enzyme giving complete nicking/digestion of DNA substrate [3] | amount of fusion enzyme giving complete nicking/digestion of DNA substrate ([3]; listed as Protein G-gHNH fusion) | amount of fusion enzyme giving partial digestion of DNA ([3]; 1 μg pBR322, NEBuffer 2 with manganese ions)
heparin, sodium salt | cannot dissociate Protein A/G-antibody reaction | no elution or displacement of antibody occurred | at least 10 ng/μl | greater than 0.2 mgs/ml | ≥ 0.3 mg/mL | 0.15 to 0.31 mg/mL |  |  | 
Protein G-gHNH: NEFP: Protein G-linker-gHNH nicking endonuclease (SEQ ID NO: 5) (protein) MKGETTTEAVDAATAEKVFKQYANDNGVDGEWTYDDATKTFTVTEKPEVIDASELTPAVTTYKLVINGKTLKGETTTEAVDAATAEKVFKQYANDNGVDGEWTYDDATKTFTVTEKPEVIDASELTPAVTTYKLVINGKTLKGETTTKAVDAETAEKAFKQYANDNGVDGVWTYDDATKTFTVTEGSATIVKKPLRPCCEFHCYNLTRERYCEEHRYKEKETQQDKNRYYDRFKRDKESTAFYRSKAWERLREQALMRDKGLCLHCKNNRKIKVADMVDHIIPIKVDPSLKLKLENLQSLCNPCHNRKTAEDKKKYG |  |  |  |  |  |  | 0.25 units | greater than 0.06 units | 0.03 units

Reference: patent US20230123635A1, “Compositions and Methods for Detecting Molecular Targets on Chromosomal DNA” (New England Biolabs, Inc., priority 2020, published 2023)
